≈ marks a conversion by molar mass, not a printed value.
Columns and labels:
MCF-7 (breast cancer) = experiment: cells; settings: for LC50: 50% cell destroying lethal concentration
From the text: (§1) The cancer cell growth inhibition test was primarily used to detect the effect of a candidate drug on cancer cell proliferation. The working principle involved therein is the abilityof viable cells to shift alamarBlue (Biosource, USA) from its originally non-fluorescent oxidized state to a reduced form (fluorescent, red) having fluorescence via metabolic reaction. According to the fluorescent data result generated by the alamarBlue reagent thus obtained, the proliferation of the viable cells and cell activity can be quantified for detection.
(§2) In this experiment, the assay concentrations of the candidate drug were set to be 0.01, 0.1, 1, 10, and 100 µg/ml, and the following cell lines were used: 6 human cancer cells MCF-7 (breast cancer), HT-29 (colon cancer), HL-60 (leukemia), HepG2 (liver cancer), A549 (lung cancer), and U937 (lymphoma cancer), and a normal human umbilicalvenalepithelialcell (HUVEC).

HT-29 (colon cancer) = experiment: cells; settings: for LC50: 50% cell destroying lethal concentration
From the text: as §1, §2

HepG2 (liver cancer) = experiment: cells; settings: for LC50: 50% cell destroying lethal concentration
From the text: as §1, §2

A549 (lung cancer) = experiment: cells; settings: for LC50: 50% cell destroying lethal concentration
From the text: as §1, §2

U937 (lymphoma cancer) = experiment: cells; settings: for LC50: 50% cell destroying lethal concentration
From the text: as §1, §2

HL-60 (leukemia) = experiment: cells; settings: for LC50: 50% cell destroying lethal concentration
From the text: as §1, §2

in vitro = settings: human
From the text: as §1, §2

HUVEC = experiment: cells; settings: for LC50: 50% cell destroying lethal concentration
From the text: as §1, §2

[1] = Homo sapiens, MCF7, MCF-7, 50% cell growth inhibition concentration
[2] = Homo sapiens, HT-29, HT-29, 50% cell growth inhibition concentration
[3] = Homo sapiens, HepG2, HepG2, 50% cell growth inhibition concentration
[4] = Homo sapiens, A549, A549, 50% cell growth inhibition concentration
[5] = Homo sapiens, U-937, U937, 50% cell growth inhibition concentration
[6] = Homo sapiens, HL-60, HL-60, 50% cell growth inhibition concentration
[7] = Homo sapiens, HUVEC, HUVEC (normal human cell), 50% cell growth inhibition concentration

Structure (SMILES) | IC50 (MCF-7 (breast cancer); [1]) | IC50 (HT-29 (colon cancer); [2]) | IC50 (HepG2 (liver cancer); [3]) | IC50 (A549 (lung cancer); [4]) | IC50 (U937 (lymphoma cancer); [5]) | IC50 (HL-60 (leukemia); [6]) | CC50 (in vitro) | IC50 (HUVEC; [7]) | LC50 (MCF-7 (breast cancer); MCF-7) | LC50 (HT-29 (colon cancer); HT-29) | LC50 (HepG2 (liver cancer); HepG2) | LC50 (A549 (lung cancer); A549) | LC50 (U937 (lymphoma cancer); U937) | LC50 (HL-60 (leukemia); HL-60) | LC50 (HUVEC; HUVEC (normal human cell)) | further results
CC(C)=CCC[C@]1(C)C=Cc2c(O)c3c(c(CC=C(C)C)c2O1)O[C@]12C(=C[C@@H]4C[C@H]1C(C)(C)O[C@@]2(C/C=C(/C)C(=O)O)C4=O)C3=O [TSB-5, gambogic acid] | 0.83 µg/mL (≈ 1.32 µM) | 4.5 µg/mL (≈ 7.16 µM) | 0.83 µg/mL (≈ 1.32 µM) | 0.8 µg/mL (≈ 1.27 µM) | 0.65 µg/mL (≈ 1.03 µM) | 0.5 µg/mL (≈ 0.795 µM) | 3.6 µg/mL (≈ 5.73 µM) | 0.87 µg/mL (≈ 1.38 µM) | – | – | – | – | – | – | – | CC50 (MCF-7 (breast cancer); Homo sapiens, MCF7, read-out: LC50): 2.7 µg/mL (≈ 4.29 µM); CC50 (HT-29 (colon cancer); Homo sapiens, HT-29, read-out: LC50): 7.1 µg/mL (≈ 11.3 µM); CC50 (HepG2 (liver cancer); Homo sapiens, HepG2, read-out: LC50): 2.7 µg/mL (≈ 4.29 µM); CC50 (A549 (lung cancer); Homo sapiens, A549, read-out: LC50): 2.9 µg/mL (≈ 4.61 µM); CC50 (U937 (lymphoma cancer); Homo sapiens, U-937, read-out: LC50): 3.1 µg/mL (≈ 4.93 µM); CC50 (HL-60 (leukemia); Homo sapiens, HL-60, read-out: LC50): 5.2 µg/mL (≈ 8.27 µM)
CC(C)=CCc1c(O)cc(O)c2c(=O)c3cc4c(c(O)c3oc12)OC(C)(C)C=C4 [TSB-4, 7,9,12-trihydroxy-2,2-dimethyl-10-(3-methyl-but-2-enyl)-2H-pyrano[3,2-b]xanthen-6-one] | 10 µg/mL (≈ 25.4 µM) | 8.4 µg/mL (≈ 21.3 µM) | 8.9 µg/mL (≈ 22.6 µM) | 1.8 µg/mL (≈ 4.56 µM) | 6.9 µg/mL (≈ 17.5 µM) | 7.7 µg/mL (≈ 19.5 µM) | 21 µg/mL (≈ 53.2 µM) | 11 µg/mL (≈ 27.9 µM) | – | – | – | – | – | – | – | –
CC(C)=CCc1c2c(c(O)c3c1OC14C(=CC5CC1C(C)(C)OC4(CC=C(C)C(=O)O)C5=O)C3=O)C=CC(C)(C)O2 (centres unmarked) [TSB-7, morellic acid] | – | – | – | – | – | – | – | – | 6.2 µg/mL (≈ 11.1 µM) | 7.2 µg/mL (≈ 12.8 µM) | 3.9 µg/mL (≈ 6.96 µM) | 3.4 µg/mL (≈ 6.06 µM) | 4.8 µg/mL (≈ 8.56 µM) | 5.6 µg/mL (≈ 9.99 µM) | 4.8 µg/mL (≈ 8.56 µM) | IC50 (MCF-7 (breast cancer); MCF-7, 50% cell growth inhibition concentration): 0.98 µg/mL (≈ 1.75 µM); IC50 (HT-29 (colon cancer); HT-29, 50% cell growth inhibition concentration): 2.8 µg/mL (≈ 4.99 µM); IC50 (HepG2 (liver cancer); HepG2, 50% cell growth inhibition concentration): 1.7 µg/mL (≈ 3.03 µM); IC50 (A549 (lung cancer); A549, 50% cell growth inhibition concentration): 0.76 µg/mL (≈ 1.36 µM); IC50 (U937 (lymphoma cancer); U937, 50% cell growth inhibition concentration): 1.6 µg/mL (≈ 2.85 µM); IC50 (HL-60 (leukemia); HL-60, 50% cell growth inhibition concentration): 1.2 µg/mL (≈ 2.14 µM); IC50 (HUVEC; HUVEC (normal human cell), 50% cell growth inhibition concentration): 0.88 µg/mL (≈ 1.57 µM)
CC(C)=CCc1c2c(c(O)c3c1OC14C(=CC5CC1C(C)(C)OC4(CC=C(C)CO)C5=O)C3=O)C=CC(C)(C)O2 (centres unmarked) [TSB-6, isomorellinol] | – | – | – | – | – | – | – | – | 5.8 µg/mL (≈ 10.6 µM) | 8.5 µg/mL (≈ 15.5 µM) | 3.0 µg/mL (≈ 5.49 µM) | 9.6 µg/mL (≈ 17.6 µM) | 3.8 µg/mL (≈ 6.95 µM) | 6.2 µg/mL (≈ 11.3 µM) | 9.3 µg/mL (≈ 17 µM) | IC50 (MCF-7 (breast cancer); Homo sapiens, MCF7): 0.9 µg/mL (≈ 1.65 µM); IC50 (HT-29 (colon cancer); Homo sapiens, HT-29): 5.2 µg/mL (≈ 9.51 µM); IC50 (HepG2 (liver cancer); Homo sapiens, HepG2): 1.2 µg/mL (≈ 2.2 µM); IC50 (A549 (lung cancer); Homo sapiens, A549): 2 µg/mL (≈ 3.66 µM); IC50 (U937 (lymphoma cancer); Homo sapiens, U-937): 1.3 µg/mL (≈ 2.38 µM); IC50 (HL-60 (leukemia); Homo sapiens, HL-60): 1.4 µg/mL (≈ 2.56 µM); IC50 (HUVEC; Homo sapiens, HUVEC): 1.5 µg/mL (≈ 2.74 µM)

From patent EP1619195A2, “Compounds isolated from gamboge resin having activity in inhibiting the growth of tumor/cancer cells and pharmaceutical compositions comprising the same” (priority 2004, dated 2006)
